Experimental data: PMC2409936, “Phase I and pharmacokinetic study of XR11576, an oral topoisomerase I and II inhibitor, administered on days 1–5 of a 3-weekly cycle in patients with advanced solid tumours” (British Journal of Cancer, 2004)

How the values were obtained:
animals = details: in animals; cited from earlier work
dogs = details: cited from earlier work
[1] = Urinary excretion in patients; type: in vivo, human; details: within 24 h after drug administration
Method: All samples were centrifuged immediately after sampling at 3000 r.p.m. for 10 min at 4°C and the plasma was stored at −20°C or lower in polypropylene tubes in the dark until analysis. A total of four urine samples were also collected over a 24-h period; 0–4, 4–8, 8–12 and 12–24 h post-dosing on day 1 of the first cycle only. Of the total amount collected, a measured quantity of 10 ml was drawn off and stored at −80°C until analysis. Concentrations of XR11576 in plasma were determined according to a validated liquid chromatography-mass spectrometry detection method with liquid–liquid extraction at the Drug Metabolism and Pharmacokinetics Department of Quintiles Limited (Internal Report at Quintiles). The lower limit of quantitation was 5 ng ml^−1.
The apparent terminal half-life (T1/2(z)) of XR11576 was calculated as ln 2/k, where k is the terminal elimination rate constant (expressed in h^−1). The peak plasma concentrations (Cmax) and the time to peak plasma concentration (Tmax) were determined from the experimental values. […] The total body clearance (CL) was calculated as the ratio between the administered dose and the AUC0–∞. The extent of accumulation (R0) in plasma was calculated from AUC0–24 h (days 4 or 5)/AUC0–24 h (day 1). The fraction of the administered dose (Fe) excreted in urine and the cumulative amount of XR11576 excreted in urine (Ae) was determined. […]

[2] = tested on: murine and human tumour cell lines; design: method as in Mistry et al, 2002; Lewis et al, 2003; details: murine leukaemias and human colon, breast, ovarian and lung carcinoma cell lines; ref Mistry et al, 2002; Lewis et al, 2003; cited from earlier work
advanced solid tumours = test: Tumour evaluation according to RECIST; type: in vivo, human
Method: Before treatment, a complete medical history was recorded and a physical examination performed. A complete blood count (CBC) including white blood cell differential and serum biochemistry, which involved sodium, potassium, calcium, urea, creatinine, uric acid, total protein, albumin, total bilirubin, alkaline phosphatase, γ-glutamyl transferase, aspartate aminotransferase, alanine aminotransferase, lactate dehydrogenase and glucose, were performed, as were urinalysis, pregnancy test, relevant tumour markers, electrocardiogram and a chest X-ray. The electrocardiogram was also performed 2 and 24 h after the first drug administration in the first and second cycles. Weekly evaluations included history, physical examination, toxicity assessment according to the CTC criteria version 2.0, and serum chemistries. Complete blood count was determined twice weekly. Tumour evaluation was performed after every two courses according to the Response Evaluation Criteria in Solid Tumours (RECIST) ([Therasse et al, 2000]). Patients were taken off protocol at the onset of disease progression.

COc1cccc2c1ccc1nc3cccc(C(=O)N[C@H](C)CN(C)C)c3nc12 [XR11576, 4-methoxy-benzo[a]phenazine-11-carboxylic acid (2-dimethulamino-1-R-methyl-ethyl)-amide]
predominantly induced toxicity (animals): bone marrow and gastrointestinal toxicity
maximum tolerated dose (MTD) (dogs; 8/9-day oral administration schedule): 200 mg m^−2
toxicities observed (dogs; i.v. doses repeatedly administered): myocarditis and nephritis
administered dose excreted unchanged in urine [1]: Less than 0.5%
antitumour activity in vitro [2]: exerted antitumour activity
objective responses (advanced solid tumours; 21 assessable patients): No objective responses
stable disease, median duration (advanced solid tumours; in vivo): 12 weeks
stable disease, range of duration (advanced solid tumours; in vivo): 12–30 weeks
patients with stabilisation of disease (advanced solid tumours; melanoma, cervical cancer and parotid cancer): Four patients
